Source: patent publication US9239334B2, “Fatty acid C16: 1N7-palmitoleate a lipokine and biomarker for metabolic status” (PRESIDENT AND FELLOWS OF HARVARD COLLEGE, priority 2008, dated 2016)

Tests used:
[1] = tested on: insulin receptor signaling in muscle tissue; test: Insulin signaling in muscle of lipid-infused mice (immunoblotting); type: in vivo; conditions: TG lipid infusion
Description: (§1) FIGS. 7A-7G show data on the regulation of insulin signaling and glucose metabolism by palmitoleate. FIG. 7A is the basal and insulin-stimulated phosphorylation of insulin receptor (IR), insulin receptor substrate-1 (IRS-1) and -2 (IRS-2) and AKT in liver of mice infused with vehicle (Veh), TG:palmitoleate (C16:1n7) or TG:palmitate (C16). Representative blots are shown and quantifications on the right are averaged results of three mice in each treatment group. […] Representative blots are shown and quantifications on the right are averaged results of three mice in each treatment group.
(§2) The left panel presents the insulin-stimulated phosphorylation of insulin receptor and AKT in liver of mice infused with vehicle or palmitoleate. […] Mice were infused with vehicle or palmitoleate at 3.3 μl/min for six hrs, and insulin (1 U/Kg) was injected through the infusing tubing. Three minutes after insulin injection, tissues were collected and immunoblotting analyses were performed.
(§3) The present invention also provides for the regulation of insulin action by increased circulating palmitoleate. To study whether palmitoleate regulates systemic metabolic responses, lipid infusions were administered in conscious mice. Lipid infusion has been used widely to investigate the relationship between plasma FFAs and insulin resistance, but almost all studies using this protocol utilized preparations of natural lipid products containing a variety of fatty acids. Kim et al., 114 J. Clin. Invest. 823-27 (2004); Kim et al., 277 J. Biol. Chem. 32915-22 (2002); Yu et al., 277 J. Biol. Chem. 50230-36 (2002). […]
(§4) Samples of 200 μl serum were collected using heparin-coated glass tubes and spun at 13,000 g in a microcentrifuge to separate the plasma. […] Tissue protein lysates was separated with SDS-PAGE gels and phosphorylated or total proteins were detected with the following antibodies: phospho AKT Serine 473, AKT, insulin receptor, phospho-tyrosine (Santa Cruz Biotech.); IRS-1 and IRS-2 (Upstate); phospho-GSK and GSK (Cell Signaling Tech.); phospho-insulin receptor from (Calbiocbem). […]

SCD-1 promoter = test: SCD-1 promoter-driven luciferase reporter in FAO hepatoma cells; type: cell-based, murine; conditions: hepatocytes (FAO) treated with a single fatty acid, 300 μM
Description: This possibility was tested using several highly sensitive assays to probe the functional profile and activities of plasma lipids. SCD-1 was chosen as a target because it was determined previously that the suppression of hepatic SCD-1 activity is a major alteration in FABP-deficient mice under diet-induced or genetic obesity. Cao et al., 2006; Maeda et al., 2005. Hepatic SCD-1 expression is regulated by a variety of hormones and nutritional factors such as insulin, glucose, and polyunsaturated fatty acids (PUFAs). Ntambi & Miyazaki, 43 Prog. Lipid Res. 91-104 (2004). […] Chu et al., 26 Mol. Cell Biol. 6786-98 (2006); Ntambi, 40 J. Lipid Res. 1549-58 (1999). The 1.5 kb murine SCD-1 promoter was placed in front of a luciferase reporter and inserted into an adenovirus construct. FAO rat hepatoma cells infected with this adenovirus verified the responsiveness of this reporter to PUFA, consistent with previous observations (FIG. 15). Because this assay system was adapted to a microplate format, very small amounts of lipids were required for experimentation. This system allowed direct testing for the effects of lipids extracted from plasma of WT and FABP-deficient animals.
Lipids were extracted from whole plasma and applied to liver cells expressing the SCD-1 promoter reporter gene. […] To control for any difference in the amount of lipids extracted from plasma and to mimic the in vivo regulation of SCD-1 expression, mixtures of FFAs were generated with the same molar ratio detected in WT or FABP-deficient plasma lipids using the major fatty acids listed in FIG. 2C. […]
as §4

aP2 = target: T1, aP2 (Mus musculus, UniProt P04117); test: Lipogenic gene expression in adipose tissue of mice treated with aP2 inhibitor; type: in vivo; conditions: WT mice on HFD, oral gavage 40 mg/kg/day for two months
T1 construct: from tissue; host or cells: epididymal fat pads of mice on high-fat diet (in vivo oral dosing)
T1 sequence (P04117 1-132): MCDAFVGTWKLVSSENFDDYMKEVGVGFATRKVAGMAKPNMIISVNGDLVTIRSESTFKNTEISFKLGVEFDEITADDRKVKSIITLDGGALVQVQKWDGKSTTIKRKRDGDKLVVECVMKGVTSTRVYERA
Description: FIGS. 6A-6D present data related to the regulation of lipogenic genes in adipose and liver of WT and FABP^−/− mice. […] Gene expression patterns in epididymal fat pad were determined by quantitative real-time PCR. FIG. 6B is regulation of lipogenic gene promoter activities by FABPs in differentiated adipocytes. […] Gene expressions in epididymal fat pads from mice treated with vehicle or aP2 inhibitor were determined with quantitative real-time PCR. […] relates to the differential regulation of lipogenic gene expression in adipose and liver tissues. Levels of the mRNAs in liver and epididymal fat pad from mice fed with high-fat diet were determined with quantitative real-time PCR. ACC1, acetyl-CoA carboxylase1; FAS, fatty acid synthase; SCD-1, stearoyl-CoA desaturase; ELOVL6, fatty acid elongase 6; DGAT1, acyl-CoA:diacylglycerol acyltransferase 1. *, p<0.05.
To directly address this, adipogenic cell lines from FABP−/−mice were differentiated them into adipocytes (FIG. 19). […] This observation agrees with that observed in adipose tissue of FABP-deficient mice. This pattern was tested in vivo in an alternative experimental system where aP2 function in mice is blocked through an orally administrated synthetic inhibitor. […] Furuhashi et al., 2007. […]

[2] = tested on: SCD-1, FAS and ELOVL6 expression in liver; test: Liver lipogenic gene expression after 6-hour lipid infusion; type: in vivo; conditions: 6-hour infusion, compared to vehicle-infused mice
Description: FIG. 5A-5E reflects the regulation of SCD-1 promoter activity in vivo. […] PUF: polyunsaturated fatty acid response element. FIG. 5B is the regulation of WT and mutant SCD-1 promoter activities by fatty acids. AA: arachidonic acid. FIG. 5C is the regulation of wild-type and mutant SCD-1 promoter activities by plasma lipids. Plasma lipids extracted from WT or FABP^−/− (DK) mice were used to treat FAO cells Infected with WT or mutant SCD-1 promoter-carrying adenoviruses and luciferase assays performed as described in the Examples. FIG. 5D presents the in vivo regulation of wild-type and mutant SCD-1 promoter activities. Luciferase assays were performed on liver tissues of WT or DK mice injected with WT or mutant SCD-1 reporter carrying adenoviruses. FIG. 5E is liver gene expression in mice infused with vehicle, TG:palmitate or TG:palmitoleate. *, p<0.05. […] INTRALIPID® fatty acid lipid infusion solution with 2 mM triglycerides:palmitate or palmitoleate were prepared using a previously described protocol with modifications (Stein et al., 1997). Briefly, lipids were dissolved in a solvent containing 5% glycerol and 0.72% phosphocholine in 0.9% saline, heated at 80° C. for 10 min, and then sonicated 1 min four times. For TG:palmitoleate, the heating was omitted to avoid oxidization of the lipids. Lipids stay in suspension for a week, so to prevent clogging the preparations must be vortexed well before loading the syringe and tubing. Seven days before lipid infusion, mice were anesthetized and an indwelling catheter inserted in the left internal jugular vein, then the animals were left to recover the following days. After overnight fasting, lipids were infused at a rate of 500 μl/kg/min for six hours. At the end of the infusion, insulin (1 U/Kg) was injected into mice via the infusion tubing and tissues were collected for subsequent gene expression and immunoblotting analyses. To determine serum FFA level during lipid infusion, blood was collected from mouse tails at different time intervals and spun down to collect plasma. Serum FFAs were determined using a commercial kit (Wako Chem.). TG:palmitate and TG:palmitoleate are difficult to dissolve at a concentration that are compatible with the infusion rate of hyperinsulinemic-euglycemic clamp study and yet maintain efficient delivery of these lipids. Therefore fatty acid: palmitoleate was used to infuse mice for clamp study. Palmitoleate was dissolved in saline containing 2% BSA (vehicle) at 15 mM with repeated sonications and was infused through the tubing at a rate of 3.3 μl/min for two hours. A standard hyperinsulinemic-euglycernic clamp was then performed as previously described (Furuhashi et al., 2007). Vehicle or palmitoleate solution was used to dissolve tracer ^3H-glucose and so lipid was also infused at 3.3 μl/min throughout the 4-hour period of clamp study.

[3] = tested on: insulin receptor, IRS-1, IRS-2 and AKT phosphorylation in liver; test: Insulin signaling in liver of lipid-infused mice (immunoblotting); type: in vivo; conditions: TG lipid infusion, compared to vehicle controls
Description: as §1, §2, §3, §4

| Compound | insulin receptor signaling in muscle [1] | SCD-1 expression in liver [2] | fatty acid elongase 6 (ELOVL6) expression in liver [2] | fatty acid synthase (FAS) expression in liver [2] | proximal insulin-signaling pathway in liver (insulin receptor, IRS-1, IRS-2, AKT) [3] | also measured |
| --- | --- | --- | --- | --- | --- | --- |
| CCCCCCCCCCCCCCCC(=O)O [palmitate, reference compound] | impaired |  |  |  |  |  |
| C16:1n7-palmitoleate | enhanced |  |  |  |  |  |
| CCCCC/C=C\C/C=C\C/C=C\C/C=C\CCCC(=O)O [arachidonic acid, reference compound] |  |  |  |  |  | SCD-1 promoter-driven reporter activity (SCD-1 promoter): suppressed |
| CCc1c(-c2ccccc2)c(-c2ccccc2)nn1-c1ccccc1-c1cccc(OCC(=O)O)c1 [aP2 inhibitor] |  |  |  |  |  | lipogenic gene expression in adipose tissues (aP2): increased |
| CCCCCC/C=C\CCCCCCCC(=O)OCC(COC(=O)CCCCCCC/C=C\CCCCCC)OC(=O)CCCCCCC/C=C\CCCCCC [TG-palmitoleate] |  | substantial decrease | substantial decrease | substantial decrease | strongly potentiated |  |
| CCCCCCCCCCCCCCCC(=O)OCC(COC(=O)CCCCCCCCCCCCCCC)OC(=O)CCCCCCCCCCCCCCC [TG-palmitate, reference compound] |  | increase | increase | increase | suppressed |  |
